One assay has as its target T1, F1F0-ATPase (Bos taurus, UniProt P13621).
T1 construct: from tissue
In words: Inhibition of F1F0-ATPase activity in synthesizing ATP. The format is biochemical. To be noted: inhibition of ATP synthesis; detection limit IC50=16 μM; read-out: ATP Syn IC50. How it is done: (§1) Exemplary compounds described in above Examples were tested for activity against F1F0-ATPase by measuring the ability of the compounds to inhibit ATP synthesis. In addition, the compounds were assessed for cytotoxicity in Ramos cells. Inhibition of F1F0-ATPase activity in synthesizing ATP and cytotoxicity in Ramos cells were measured according to the procedures described in K. M. Johnson et al. Chemistry & Biology 2005, 12, 485-496.

A further assay has as its system Ramos cells. In words: Cytotoxicity in Ramos cells. Conditions: detection limit EC50=16 μM, read-out: Ramos Cell EC50. Format: cell-based. As for the experimental part: as §1

Structures can show the parent of a compound that is named as a salt. Where two headings read alike, the source gives them in different places.

Regarding `COC[C@H](C)N/C(=N/C(=O)c1ccc(F)c(F)c1)Nc1n[nH]c2cc(Cl)ccc12` [Compound 1, (S)-N-(((6-Chloro-1H-indazol-3-yl)amino)((1-methoxypropan-2-yl)amino)methylene)-3,4-difluorobenzamide], the IC50 on F1F0-ATPase was less than 5 µM. Besides, in the assay on Ramos cells (Homo sapiens), the EC50 was less than 5 µM.

`CC(C)(O)CN/C(=N/C(=O)c1ccc(Cl)cc1)Nc1n[nH]c2cc(F)ccc12` [Compound 2, 4-Chloro-N-((6-fluoro-1H-indazol-3-ylamino)((2-hydroxy-2-methylpropyl)amino)methylene)benzamide]: the IC50 on F1F0-ATPase is less than 5 µM. The EC50 in the assay with Ramos cells (Homo sapiens) was more than 16 µM.

Turning to `COC[C@H](C)N/C(=N/C(=O)c1ccc(F)c(F)c1)Nc1n[nH]c2cc(C(F)(F)F)ccc12` [Compound 3, (S)-3,4-Difluoro-N-(((1-methoxypropan-2-yl)amino)((6-(trifluoromethyl)-1H-indazol-3-yl)amino)methylene)benzamide], the IC50 on F1F0-ATPase is less than 5 µM. The concentration giving a half-maximal response (EC50) in the assay on Ramos cells (Homo sapiens) was less than 5 µM.

For `COC[C@H](C)NC(=NC(=O)c1ccc(F)c(F)c1)Nc1nn(C(=O)[C@@H](N)C(C)C)c2cc(C(F)(F)F)ccc12` [Compound 6, N-(((1-((S)-2-Amino-3-methylbutanoyl)-6-(trifluoromethyl)-1H-indazol-3-yl)amino)(((S)-1-methoxypropan-2-yl)amino)methylene)-3,4-difluorobenzamide hydrochloride salt], the IC50 on F1F0-ATPase is 5 to 16 µM. Moreover, the EC50 in the assay with Ramos cells (Homo sapiens) was more than 16 µM.

Turning to `CC1(N/C(=N/C(=O)c2ccc(Cl)cc2)Nc2n[nH]c3ccccc23)CCC1` [Compound A-1], the IC50 on F1F0-ATPase was less than 5 µM. Besides, the EC50 with Ramos cells (Homo sapiens) was 5 to 16 µM.

On to `CC(C)N/C(=N/C(=O)c1cccc(F)c1)Nc1n[nH]c2ccc(C(F)(F)F)cc12` [Compound A-2], for which, at F1F0-ATPase, the IC50 is less than 5 µM. In the assay with Ramos cells, the EC50 was more than 16 µM.

As for `CC(C)(C)N/C(=N/C(=O)c1ccc(F)c(F)c1)Nc1n[nH]c2ccc(F)cc12` [Compound A-3], the IC50 on F1F0-ATPase is less than 5 µM. Moreover, in the assay with Ramos cells, the EC50 was 5 to 16 µM.

Turning to `CC(C)CN/C(=N/C(=O)c1ccc(F)c(F)c1)Nc1n[nH]c2ccc(F)cc12` [Compound A-4], the half-maximal inhibitory concentration (IC50) at F1F0-ATPase is less than 5 µM. The EC50 in the assay on Ramos cells lay within 5 to 16 µM.

With `CC(C)(C)N/C(=N/C(=O)c1ccc(F)c(F)c1)Nc1n[nH]c2cccc(F)c12` [Compound A-5], on F1F0-ATPase, the IC50 is less than 5 µM. Further, the EC50 in the assay on Ramos cells was less than 5 µM.

Regarding `CC(C)CN/C(=N/C(=O)c1ccc(F)c(F)c1)Nc1n[nH]c2cccc(F)c12` [Compound A-6], the concentration for half-maximal inhibition (IC50) on F1F0-ATPase was more than 16 µM. The EC50 in the assay on Ramos cells is more than 16 µM.

Regarding `CC(C)(C)N/C(=N/C(=O)c1ccc(F)c(F)c1)Nc1n[nH]c2cc(C(F)(F)F)ccc12` [Compound A-7], at F1F0-ATPase, the IC50 was more than 16 µM. The EC50 in the assay on Ramos cells was less than 5 µM.

Consider `CC(C)CN/C(=N/C(=O)c1ccc(F)c(F)c1)Nc1n[nH]c2cc(C(F)(F)F)ccc12` [Compound A-8], for which, at F1F0-ATPase, the IC50 is less than 5 µM. Also, the EC50 in the assay on Ramos cells is less than 5 µM.

Regarding `CCC(C)N/C(=N/C(=O)c1ccc(F)c(F)c1)Nc1n[nH]c2cc(C(F)(F)F)ccc12` (stereo not shown) [Compound A-9], the IC50 at F1F0-ATPase was less than 5 µM. For the same compound, in the assay on Ramos cells, the 50% effective concentration (EC50) was less than 5 µM.

`CC(C)N/C(=N/C(=O)c1ccc(F)c(F)c1)Nc1n[nH]c2cc(C(F)(F)F)ccc12` [Compound A-10]: the IC50 on F1F0-ATPase was less than 5 µM. Besides, in the assay on Ramos cells, the EC50 is less than 5 µM.

For the compound `CCOCCCNC(=NC(=O)c1ccc(F)c(F)c1)Nc1n[nH]c2cc(C(F)(F)F)ccc12` [Compound A-11], on F1F0-ATPase, the IC50 is less than 5 µM. Also, the EC50 in the assay with Ramos cells was less than 5 µM.

Turning to `CCOCCN/C(=N/C(=O)c1ccc(F)c(F)c1)Nc1n[nH]c2cc(C(F)(F)F)ccc12` [Compound A-12], the IC50 at F1F0-ATPase was less than 5 µM. The EC50 in the assay on Ramos cells was less than 5 µM.

For `CC(C)(C)N/C(=N/C(=O)c1ccc(Cl)c(F)c1)Nc1n[nH]c2cc(C(F)(F)F)ccc12` [Compound A-13], at F1F0-ATPase, the half-maximal inhibitory concentration (IC50) was less than 5 µM. In addition, the concentration for a half-maximal effect (EC50) in the assay on Ramos cells lay within 5 to 16 µM.

`CC(C)CN/C(=N/C(=O)c1ccc(Cl)c(F)c1)Nc1n[nH]c2cc(C(F)(F)F)ccc12` [Compound A-14]: the IC50 at F1F0-ATPase was less than 5 µM. Further, in the assay on Ramos cells, the concentration for a half-maximal effect (EC50) is less than 5 µM.

Turning to `CCOCCCN/C(=N/C(=O)c1ccc(Cl)c(F)c1)Nc1n[nH]c2cc(C(F)(F)F)ccc12` [Compound A-15], the IC50 at F1F0-ATPase is less than 5 µM. In addition, the EC50 in the assay on Ramos cells was less than 5 µM.

Turning to `CCC(C)NC(=NC(=O)c1ccc(Cl)c(F)c1)Nc1n[nH]c2cc(C(F)(F)F)ccc12` (stereo not shown) [Compound A-16], at F1F0-ATPase, the IC50 was less than 5 µM. Besides, in the assay with Ramos cells (Homo sapiens), the EC50 lay in the range of 5 to 16 µM.

As for `COC[C@H](C)N/C(=N/C(=O)c1ccc(Cl)c(F)c1)Nc1n[nH]c2cc(C(F)(F)F)ccc12` [Compound A-17], on F1F0-ATPase, the IC50 is less than 5 µM. Moreover, in the assay on Ramos cells, the EC50 was more than 16 µM.

Consider `CC(C)N/C(=N/C(=O)c1ccc(Cl)c(F)c1)Nc1n[nH]c2cc(C(F)(F)F)ccc12` [Compound A-18], for which the 50% inhibitory concentration (IC50) on F1F0-ATPase is less than 5 µM. Also, the EC50 with Ramos cells was more than 16 µM.

Regarding `O=C(/N=C(\Nc1n[nH]c2cc(C(F)(F)F)ccc12)NC1CCCC1)c1ccc(Cl)c(F)c1` [Compound A-19], on F1F0-ATPase, the IC50 was less than 5 µM. Also, the EC50 in the assay on Ramos cells (Homo sapiens) was less than 5 µM.

As for `CCOCCN/C(=N/C(=O)c1ccc(Cl)c(F)c1)Nc1n[nH]c2cc(C(F)(F)F)ccc12` [Compound A-20], the IC50 on F1F0-ATPase was less than 5 µM. In addition, the EC50 with Ramos cells is more than 16 µM.

In the case of `O=C(/N=C(\Nc1n[nH]c2cc(C(F)(F)F)ccc12)NC1CCOCC1)c1ccc(Cl)c(F)c1` [Compound A-21], the IC50 at F1F0-ATPase is less than 5 µM. For the same compound, the EC50 in the assay on Ramos cells (Homo sapiens) lay within 5 to 16 µM.

Take `O=C(/N=C(/NCCOCCO)Nc1n[nH]c2cc(C(F)(F)F)ccc12)c1ccc(Cl)c(F)c1` [Compound A-22]: the IC50 at F1F0-ATPase is more than 16 µM. In addition, in the assay with Ramos cells, the concentration for a half-maximal effect (EC50) is more than 16 µM.

With `CC(C)(C)N/C(=N/C(=O)c1ccc(N2CCOCC2)nc1)Nc1n[nH]c2cc(C(F)(F)F)ccc12` [Compound A-23], the IC50 at F1F0-ATPase was less than 5 µM. Further, the EC50 in the assay on Ramos cells lay in the range of 5 to 16 µM.

As for `CC(C)CN/C(=N/C(=O)c1ccc(N2CCOCC2)nc1)Nc1n[nH]c2cc(C(F)(F)F)ccc12` [Compound A-24], the IC50 at F1F0-ATPase was less than 5 µM. The half-maximal effective concentration (EC50) in the assay on Ramos cells was in the range of 5 to 16 µM.

In the case of `O=C(/N=C(\Nc1n[nH]c2cc(C(F)(F)F)ccc12)NC1CCC1)c1ccc(N2CCOCC2)nc1` [Compound A-25], the IC50 at F1F0-ATPase was less than 5 µM. In addition, the EC50 in the assay on Ramos cells (Homo sapiens) fell in the range of 5 to 16 µM.

For the compound `COC[C@H](C)N/C(=N/C(=O)c1ccc(N2CCOCC2)nc1)Nc1n[nH]c2cc(C(F)(F)F)ccc12` [Compound A-26], on F1F0-ATPase, the IC50 fell in the range of 5 to 16 µM. For the same compound, the concentration giving a half-maximal response (EC50) with Ramos cells is more than 16 µM.

For `CC(C)(C)CNC(=NC(=O)c1ccc(N2CCOCC2)nc1)Nc1n[nH]c2cc(C(F)(F)F)ccc12` [Compound A-27], the IC50 at F1F0-ATPase was less than 5 µM. The EC50 in the assay with Ramos cells (Homo sapiens) was more than 16 µM.

Regarding `CC(C)(C)CNC(=NC(=O)c1ccc2nonc2c1)Nc1n[nH]c2cc(F)ccc12` [Compound A-28], the 50% inhibitory concentration (IC50) on F1F0-ATPase fell in the range of 5 to 16 µM. Also, the EC50 in the assay with Ramos cells (Homo sapiens) was more than 16 µM.

For the compound `CC(C)CN/C(=N/C(=O)c1ccc2nonc2c1)Nc1n[nH]c2cc(F)ccc12` [Compound A-29], the IC50 at F1F0-ATPase is less than 5 µM. Also, in the assay on Ramos cells, the EC50 was more than 16 µM.

As to `CCOCCN/C(=N/C(=O)c1ccc2nonc2c1)Nc1n[nH]c2cc(F)ccc12` [Compound A-30], at F1F0-ATPase, the IC50 is more than 16 µM. In addition, the EC50 in the assay with Ramos cells was more than 16 µM.

Regarding `CC(C)CN/C(=N/C(=O)c1ccc(F)c(F)c1)Nc1n[nH]c2cc(Cl)ccc12` [Compound A-31], the IC50 at F1F0-ATPase was less than 5 µM. Further, in the assay with Ramos cells, the EC50 was less than 5 µM.

What is called IC50 is the midpoint of a concentration-inhibition curve. As usually defined, the EC50 is the concentration giving half of the maximal effect.

The values above are taken from US9920012B2, “Indazole guanidine F1F0-ATPase inhibitors and therapeutic uses thereof” (Lycera Corporation, priority 2012, dated 2018).
